From patent US20090215752A1, “Compounds, preparation and therapeutic use thereof” (priority 2005, published 2009) come the findings set out here.

Experiment [1] relates to σ receptors. Briefly: Isolated organ bioassay, field-stimulated vas deferens: test for agonist activity. The arrangement: species or system guinea pig. To be noted: mean, n=2. On the procedure: (§1) Segments of guinea pig vas deferens were suspended in 20-ml organ baths containing an oxygenated (95% O2 and 5% CO2) and pre-warmed (37° C.) physiological salt solution of the following composition (in mM): NaCl 118.0, KCl 4.7, MgSO4 1.2, CaCl2 2.5, KH2PO4 1.2, NaHCO3 25.0 and glucose 11.0 (pH 7.4). Yohimbine (1 μM), (−) sulpiride (1 μM), atropine (1 μM) and naloxone (1 μM) were also present throughout the experiments to block the α2-adrenergic, dopamine D2, muscarinic and opioid receptors, respectively. The tissues were connected to force transducers for isometric tension recordings. They were stretched to a resting tension of 0.5 g, allowed to equilibrate for at least 30 min during which time they were washed repeatedly and the tension readjusted. Thereafter, they were stimulated electrically using a constant current stimulator.
The tissues were exposed to a submaximal concentration of the reference agonist (+) SKF-10047 (100 μM) to verify responsiveness and to obtain a control response. Following washings and recovery of the twitch contraction amplitude, the tissues were exposed to increasing concentrations of substance or the same agonist. The different concentrations were added cumulatively and each was left in contact with the tissues until a stable response was obtained or for a maximum of 15 min. If an agonist-like response (enhancement of twitch contractions) was obtained, the reference antagonist rimcazole (10 μM) was tested against the highest concentration of substance to confirm the involvement of the σ receptors in this response.
(§2) The parameter measured was the maximum change in the twitch contraction amplitude induced by each compound concentration. The results are expressed as a percent variation of the control twitch contraction amplitude (mean values). The effects of substance tested at 1.0 10^−6 M, 3.0 10^−6 M and 1.0 10^−5 M for agonist and antagonist activities at the σ receptors in the guinea pig vas deferens bioassay are summarized in Tables 6-7 where those of the reference compounds are also reported.

The target of another experiment is T1, PDE2 (Homo sapiens, UniProt O00408).
T1 construct: PDE2 was isolated from human platelets, provided by Etablissement Français du Sang-Alsace; tissue Etablissement Français du Sang-Alsace; host or cells: human platelets
As to the kind of experiment: Inhibition of PDE2 (radioenzymatic phosphodiesterase assay). It counts as biochemical. The settings on record: Table 1, 1 μM cyclic AMP. In short, it runs like this: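 PDE2 isolated from human platelets was assayed radioenzymatically with 1 μM [3H]-cAMP substrate, limiting hydrolysis to ≤15%, in duplicate. Product was converted to nucleoside by nucleotidase, separated by anion exchange and counted by scintillation; IC50 from nonlinear regression of hydrolysis rates.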

For experiment [2], the system named is σ receptors. As to the kind of experiment: Isolated organ bioassay, field-stimulated vas deferens: test for antagonist activity. The settings on record: mean, n=2. The arrangement: species or system guinea pig. On the procedure: as §1
The tissues were exposed to a submaximal concentration of the reference agonist (+) SKF-10047 (100 μM) to obtain a control response. After stabilization of the (+) SKF-10047-induced response, increasing concentrations of substance or the reference antagonist rimcazole were added cumulatively. Each concentration was left in contact with the tissues until a stable response was obtained or for a maximum of 15 min. If it occurred, an inhibition of the (+) SKF-10047-induced increase in twitch contraction amplitude by substance indicated an antagonist activity at the σ receptors.
as §2

The target of a further experiment is T2, sigma 2 receptors (Rattus norvegicus, UniProt Q5U3Y7).
T2 construct: The sigma 2 receptors were isolated from rat cerebral cortex; from tissue; host or cells: rat cerebral cortex
T2 sequence (Q5U3Y7 1-176): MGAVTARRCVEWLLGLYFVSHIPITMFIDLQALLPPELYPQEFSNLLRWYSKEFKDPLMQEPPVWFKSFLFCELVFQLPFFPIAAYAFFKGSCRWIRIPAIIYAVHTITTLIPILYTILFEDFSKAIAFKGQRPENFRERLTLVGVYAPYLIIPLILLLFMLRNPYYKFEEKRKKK
Briefly: Sigma 2 receptor binding ([3H]DTG + (+)pentazocine). The settings on record: [3H]DTG 5 nM + 300 nM (+)pentazocine, rat cerebral cortex, read-out: σ2 percentage inhibition at 10 μM. On the procedure: The sigma 1 receptors were isolated from guinea pig cerebral cortex according to the method described in Bowen et al., 1993.
Sigma 1 receptor binding was determined by a radioligand method using tritium-labelled (+)pentazocine (2 nM) as substrate (Bowen et al., 1993). Sigma 2 receptor binding was determined by a radioligand method using tritium-labelled DTG (+300 nM (+)pentazocine) (5 nM) as substrate (Bowen et al., 1993). Ligand radioactivity was determined by liquid scintillation counting. For sigma 1 binding evaluation, ligand incubations were carried out for one hundred fifty minutes at 22° C. For sigma 2 binding evaluation, ligand incubations were carried out for one hundred twenty minutes at 22° C. The experiments were conducted in duplicate.
The specific ligand binding to the sigma receptors was defined as the difference between the total binding and the non specific binding determined in presence of an excess of unlabelled ligand. The results obtained are presented in Table 4 hereinbelow and are expressed as percent of control specific binding and as a percent inhibition of control specific binding obtained in presence of 10 μM of substance.

T1 sequence (O00408 whole entry): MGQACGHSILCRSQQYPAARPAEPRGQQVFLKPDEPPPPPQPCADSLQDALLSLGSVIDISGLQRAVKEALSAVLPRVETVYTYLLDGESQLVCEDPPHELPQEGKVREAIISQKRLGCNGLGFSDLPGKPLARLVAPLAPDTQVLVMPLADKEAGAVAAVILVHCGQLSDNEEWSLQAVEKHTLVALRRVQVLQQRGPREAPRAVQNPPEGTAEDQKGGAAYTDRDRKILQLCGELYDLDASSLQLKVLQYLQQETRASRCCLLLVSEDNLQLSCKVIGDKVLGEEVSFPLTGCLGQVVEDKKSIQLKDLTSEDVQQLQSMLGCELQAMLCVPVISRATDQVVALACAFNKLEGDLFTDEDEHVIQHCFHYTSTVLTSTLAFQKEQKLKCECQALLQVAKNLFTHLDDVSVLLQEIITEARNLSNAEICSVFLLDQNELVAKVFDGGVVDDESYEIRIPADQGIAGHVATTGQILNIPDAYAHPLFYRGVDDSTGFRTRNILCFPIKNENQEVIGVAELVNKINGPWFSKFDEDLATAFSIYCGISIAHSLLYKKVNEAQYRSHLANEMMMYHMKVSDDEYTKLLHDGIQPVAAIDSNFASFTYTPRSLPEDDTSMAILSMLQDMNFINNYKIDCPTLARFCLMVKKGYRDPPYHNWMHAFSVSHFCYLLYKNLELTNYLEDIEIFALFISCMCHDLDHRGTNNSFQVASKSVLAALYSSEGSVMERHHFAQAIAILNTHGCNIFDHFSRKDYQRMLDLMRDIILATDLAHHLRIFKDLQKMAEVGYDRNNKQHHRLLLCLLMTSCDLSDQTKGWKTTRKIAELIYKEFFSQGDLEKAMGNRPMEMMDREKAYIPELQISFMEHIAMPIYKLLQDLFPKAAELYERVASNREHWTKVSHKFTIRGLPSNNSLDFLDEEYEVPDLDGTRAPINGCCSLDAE

By inhibition is commonly meant the change of the read-out against control, counted positive when it falls. What is called IC50 is the concentration at which inhibition is half-maximal. Consider `COc1cc2c(c(OC)c1-c1ccccc1)C(c1cccc(C(N)=O)c1)=NCC(=O)N2C` [Compound 17, 3-(6,8-Dimethoxy-1-methyl-2-oxo-7-phenyl-2,3-dihydro-1H-benzo[e][1,4]diazepin-5-yl)-benzamide], for which the figures for the “Response to the compound, variation of twitch contraction amplitude” value with σ receptors [1] (1.0 10^−5 M), in the experiment with σ receptors [1] (1.0 10^−6 M) and with σ receptors [1] (3.0 10^−6 M) were “+33%”, 0% and 0%, respectively. The “Response to the highest concentration of the compound +Rimcazole (1.0 10^−5 M)” value in the experiment on σ receptors [1] (highest compound concentration plus rimcazole 1.0 10^−5 M) was −9%. Moreover, the inhibition at 10 µM at PDE2 (10 μM compound, read-out: PDE2 percentage inhibition at 10 μM) stood at 80%; on sigma 2 receptors, 93%. Also, the half-inhibitory concentration (IC50) on PDE2 (value in square brackets, read-out: PDE2 IC50) was found to be 800 nM. The “Response to (+)SKF-10,047 (1.0 10^−4 M) in the presence of the compound” value with σ receptors [2] (compound 1.0 10^−5 M) is given as “+169%”; with σ receptors [2] (compound 1.0 10^−6 M), “+139%”; in the experiment with σ receptors [2] (compound 3.0 10^−6 M), “+139%”.
